Measurements reported in PubChem BioAssay AID248 (DTP/NCI, 2004).
Where “and” joins values, the source holds several entries; their conditions need not be identical. Identical values can stand only once. Toxic doses and inconclusive results are not listed. Cut-off read from the data, not from the text of the source: active = T/C of 150% or more; inactive = T/C below 125%.

Test system: L1210 leukemia ip in BDF1 mice, survival T/C
Assay: NCI In Vivo Anticancer Drug Screen. Data for tumor model L1210 Leukemia (intraperitoneal) in B6D2F1 (BDF1) mice
Conditions: endpoint: mean survival time, higher = longer survival
In short: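 Ratio derived from survival: compound-dosed mice over vehicle-dosed mice, all bearing a transplantable tumor.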

[1] = dose: 12.5 mg/kg/injection, schedule: Q01DX009 (ip), vehicle: saline with Tween-80
[2] = dose: 25.0 mg/kg/injection, schedule: Q01DX009 (ip), vehicle: saline with Tween-80
[3] = dose: 50.0 mg/kg/injection, schedule: Q01DX009 (ip), vehicle: saline with Tween-80
[4] = dose: 100.0 mg/kg/injection, schedule: Q01DX009 (ip), vehicle: saline with Tween-80
[5] = dose: 100.0 mg/kg/injection, schedule: Q01DX001 (ip), vehicle: Klucel (hydroxypropylcellulose) (HPC)
[6] = dose: 100.0 mg/kg/injection, schedule: Q04DX003 (ip), vehicle: Klucel (hydroxypropylcellulose) (HPC)
[7] = dose: 200.0 mg/kg/injection, schedule: Q01DX001 (ip), vehicle: Klucel (hydroxypropylcellulose) (HPC)
[8] = dose: 200.0 mg/kg/injection, schedule: Q04DX003 (ip), vehicle: Klucel (hydroxypropylcellulose) (HPC)
[9] = dose: 400.0 mg/kg/injection, schedule: Q01DX001 (ip), vehicle: Klucel (hydroxypropylcellulose) (HPC)
[10] = dose: 400.0 mg/kg/injection, schedule: Q04DX003 (ip), vehicle: Klucel (hydroxypropylcellulose) (HPC)
[11] = dose: 100.0 mg/kg/injection, schedule: Q01DX009 (ip), vehicle: Klucel (hydroxypropylcellulose) (HPC)
[12] = dose: 100.0 mg/kg/injection, schedule: Q04DX002 (ip), vehicle: Klucel (hydroxypropylcellulose) (HPC)
[13] = dose: 200.0 mg/kg/injection, schedule: Q01DX009 (ip), vehicle: Klucel (hydroxypropylcellulose) (HPC)
[14] = dose: 200.0 mg/kg/injection, schedule: Q04DX002 (ip), vehicle: Klucel (hydroxypropylcellulose) (HPC)
[15] = dose: 400.0 mg/kg/injection, schedule: Q01DX009 (ip), vehicle: Klucel (hydroxypropylcellulose) (HPC)
[16] = dose: 400.0 mg/kg/injection, schedule: Q04DX002 (ip), vehicle: Klucel (hydroxypropylcellulose) (HPC)
[17] = dose: 100.0 mg/kg/injection, schedule: Q01DX001 (ip), vehicle: carboxymethylcellulose (CMC)
[18] = dose: 200.0 mg/kg/injection, schedule: Q01DX001 (ip), vehicle: carboxymethylcellulose (CMC)
[19] = dose: 400.0 mg/kg/injection, schedule: Q01DX001 (ip), vehicle: carboxymethylcellulose (CMC)
[20] = dose: 100.0 mg/kg/injection, schedule: Q04DX003 (ip), vehicle: saline with Tween-80

Measured: T/C

CC1CCC2(OC1)OC1C(O)C3C4CCC5CC(OC6OC(CO)C(OC7OC(CO)C(O)C(OC8OCC(O)C(O)C8O)C7OC7OC(CO)C(O)C(OC8OC(CO)C(O)C(O)C8O)C7O)C(O)C6O)C(O)CC5(C)C4CCC3(C)C1C2C (stereo not given)
inactive: dose: 25.0 mg/kg/injection, schedule: Q01DX001 (ip), vehicle: saline with Tween-80 93 % of control

C=C(C)C(=NC)Nc1ccc(Cl)c(Cl)c1
inactive: dose: 222.0 mg/kg/injection, schedule: Q01DX Z (ip), vehicle: methylcellulose (MC) 98 % of control | dose: 333.0 mg/kg/injection, schedule: Q01DX Z (ip), vehicle: methylcellulose (MC) 91 % of control | dose: 500.0 mg/kg/injection, schedule: Q01DX Z (ip), vehicle: methylcellulose (MC) 93 % of control

COC(=O)CC(=O)C=P(c1ccccc1)(c1ccccc1)c1ccccc1
inactive: [1] 98 % of control | [2] 101 % of control | [3] 95 % of control | dose: 75.0 mg/kg/injection, schedule: Q01DX001 (ip), vehicle: saline 96 % of control | [4] 89 % of control | dose: 150.0 mg/kg/injection, schedule: Q01DX001 (ip), vehicle: saline 100 % of control | dose: 300.0 mg/kg/injection, schedule: Q01DX001 (ip), vehicle: saline 93 % of control

COC1CCC(N)CC1 (stereo not given)
inactive: dose: 100.0 mg/kg/injection, schedule: Q01DX001 (ip), vehicle: saline 109 % of control | dose: 200.0 mg/kg/injection, schedule: Q01DX001 (ip), vehicle: saline 107 % of control | dose: 400.0 mg/kg/injection, schedule: Q01DX001 (ip), vehicle: saline 97 % of control

CC(C)(C)OP(O)(=S)OC(C)(C)C
inactive: dose: 100.0 mg/kg/injection, schedule: Q04DX002 (ip), vehicle: saline 94 % of control | dose: 200.0 mg/kg/injection, schedule: Q04DX002 (ip), vehicle: saline 113 % of control | dose: 400.0 mg/kg/injection, schedule: Q04DX002 (ip), vehicle: saline 110 % of control

COC(=O)CC(Cc1cc(OC)ccc1OC)(C(=O)OC)C(=O)OC
inactive: dose: 12.5 mg/kg/injection, schedule: Q04DX003 (ip), vehicle: Klucel (hydroxypropylcellulose) (HPC) 102 % of control | dose: 25.0 mg/kg/injection, schedule: Q04DX003 (ip), vehicle: Klucel (hydroxypropylcellulose) (HPC) 94 % of control | dose: 50.0 mg/kg/injection, schedule: Q04DX003 (ip), vehicle: Klucel (hydroxypropylcellulose) (HPC) 98 % of control | [5] 106 % of control | [6] 105 % of control | [7] 97 % of control | [8] 103 % of control | [9] 98 % of control | [10] 105 % of control

CC(C)c1cccc(C(C)C)c1OC(=O)Nc1ccccc1
inactive: [5] 101 % of control | [11] 97 % of control | [12] 95 % of control and 102 % of control | [6] 116 % of control | [7] 88 % of control | [13] 98 % of control and 87 % of control | [14] 97 % of control and 108 % of control | [8] 100 % of control | [9] 87 % of control | [15] 103 % of control and 113 % of control | [16] 102 % of control and 90 % of control | [10] 108 % of control

CC(=O)OCC1OC(N2C(=O)/C(=C(/C)c3ccco3)SC2=S)C(OC(C)=O)C(OC(C)=O)C1OC(C)=O (stereo not given)
inactive: dose: 25.0 mg/kg/injection, schedule: Q01DX005 (ip), vehicle: other 103 % of control | dose: 50.0 mg/kg/injection, schedule: Q01DX005 (ip), vehicle: other 98 % of control | dose: 100.0 mg/kg/injection, schedule: Q01DX005 (ip), vehicle: other 98 % of control | dose: 200.0 mg/kg/injection, schedule: Q01DX005 (ip), vehicle: other 98 % of control | dose: 400.0 mg/kg/injection, schedule: Q01DX005 (ip), vehicle: other 101 % of control

CC(C)OC(=O)Nc1ccncc1
inactive: dose: 3.13 mg/kg/injection, schedule: Q01DX009 (ip), vehicle: saline with Tween-80 93 % of control | dose: 6.25 mg/kg/injection, schedule: Q01DX009 (ip), vehicle: saline with Tween-80 97 % of control | dose: 6.25 mg/kg/injection, schedule: Q04DX002 (ip), vehicle: saline with Tween-80 110 % of control | [1] 101 % of control | dose: 12.5 mg/kg/injection, schedule: Q04DX002 (ip), vehicle: saline with Tween-80 96 % of control

CC1CCC(C(C)C)/C(=N\O)C1 (stereo not given)
inactive: dose: 100.0 mg/kg/injection, schedule: Q01DX001 (ip), vehicle: saline with Tween-80 93 % of control | dose: 200.0 mg/kg/injection, schedule: Q01DX001 (ip), vehicle: saline with Tween-80 97 % of control | dose: 400.0 mg/kg/injection, schedule: Q01DX001 (ip), vehicle: saline with Tween-80 93 % of control

BrCC(CCCc1ccccc1)CCc1ccccc1 (stereo not given)
inactive: dose: 100.0 mg/kg/injection, schedule: Q04DX002 (ip), vehicle: saline with Tween-80 93 % of control | dose: 200.0 mg/kg/injection, schedule: Q04DX002 (ip), vehicle: saline with Tween-80 90 % of control | dose: 400.0 mg/kg/injection, schedule: Q04DX002 (ip), vehicle: saline with Tween-80 101 % of control

Clc1cccc(-c2nc3ccccc3c3ccccc23)c1
inactive: [4] 90 % of control | dose: 200.0 mg/kg/injection, schedule: Q01DX009 (ip), vehicle: saline with Tween-80 100 % of control | dose: 400.0 mg/kg/injection, schedule: Q01DX009 (ip), vehicle: saline with Tween-80 103 % of control

O=C(c1ccccc1)C(Br)C(Br)C(=O)c1ccccc1 (stereo not given)
inactive: [17] 107 % of control | [11] 93 % of control | [6] 91 % of control | [18] 96 % of control | [13] 101 % of control | [8] 88 % of control | [19] 107 % of control | [15] 91 % of control | [10] 90 % of control

N#CCn1c(C(F)(F)F)nc2nc(Cl)c(Cl)nc21
inactive: [2] 98 % of control | [3] 98 % of control | [4] 96 % of control | [20] 98 % of control

OC(c1ccccc1)C1C2C=CC(C2)C1C(O)c1ccccc1 (stereo not given)
inactive: [11] 101 % of control | [13] 86 % of control | dose: 300.0 mg/kg/injection, schedule: Q01DX009 (ip), vehicle: Klucel (hydroxypropylcellulose) (HPC) 95 % of control

Cc1cc(NC(=O)C(=O)Nc2cc(C)on2)no1
inactive: [11] 93 % of control | [13] 100 % of control | [15] 93 % of control

Cc1ccc(NC(=O)OCCOc2c(C(C)C)cccc2C(C)C)c([N+](=O)[O-])c1
inactive: [12] 94 % of control | [14] 96 % of control | [16] 92 % of control

NC(N)=NCC(=O)O
inactive: dose: 75.0 mg/kg/injection, schedule: Q01DX001 (ip), vehicle: saline with Tween-80 105 % of control | dose: 150.0 mg/kg/injection, schedule: Q01DX001 (ip), vehicle: saline with Tween-80 100 % of control | dose: 300.0 mg/kg/injection, schedule: Q01DX001 (ip), vehicle: saline with Tween-80 102 % of control

O=C(OCC(F)(F)C(F)(F)C(F)(F)C(F)F)c1ccccc1C(=O)OCC(F)(F)C(F)(F)C(F)(F)C(F)F
inactive: dose: 50.0 mg/kg/injection, schedule: Q01DX001 (ip), vehicle: carboxymethylcellulose (CMC) 91 % of control | [17] 107 % of control | [18] 105 % of control | [19] 94 % of control

CCNCCCCNCC
inactive: [2] 95 % of control | dose: 25.0 mg/kg/injection, schedule: Q04DX003 (ip), vehicle: saline with Tween-80 98 % of control | [3] 101 % of control | dose: 50.0 mg/kg/injection, schedule: Q04DX003 (ip), vehicle: saline with Tween-80 91 % of control | [20] 94 % of control and 87 % of control

C1OCOCO1
inactive: dose: 25.0 mg/kg/injection, schedule: Q01DX009 (ip), vehicle: saline 92 % of control | dose: 50.0 mg/kg/injection, schedule: Q01DX009 (ip), vehicle: saline 97 % of control | dose: 100.0 mg/kg/injection, schedule: Q01DX009 (ip), vehicle: saline 95 % of control | dose: 200.0 mg/kg/injection, schedule: Q01DX009 (ip), vehicle: saline 97 % of control
